Measured values published in paper PMC11110727, “Exploiting thiol-functionalized benzosiloxaboroles for achieving diverse substitution patterns – synthesis, characterization and biological evaluation of promising antibacterial agents” (RSC Medicinal Chemistry, 2024).
In brackets after ≈: the same amount, converted by molar mass.

Assays:
[1] = tested on: Human normal lung fibroblasts MRC-5; assay: MTT-based viability (cytotoxicity) assay; details: MRC-5, MTT, 48 h
Experimental: To evaluate the cytotoxic effect of the tested compounds, an MTT-based assay was performed. […] Moreover, based on available IC50 and MIC (for standard and clinical S. aureus MRSA strains) values, the selectivity index (SI) was calculated for several compounds as the IC50/MIC ratio (Table 5).[60]
MRC-5 pd30 human fibroblasts (ECACC) were cultured in MEME, Minimum Essential Medium Eagle (Merck), supplemented with 10% fetal bovine serum (Merck), 2 mM L-glutamine, antibiotics (100 U mL^−1 penicillin, 100 μg mL^−1 streptomycin, Merck) and 1% non-essential amino acids (Merck). Cells were grown in 75 cm^2 cell culture flasks (Sarstedt), in a humidified atmosphere of CO2/air (5/95%) at 37 °C. MTT-based viability assay was conducted as described previously.[26] Optical densities were measured at 570 nm using a BioTek microplate reader. All measurements were carried out in three replicates and the results expressed as a percent of viable cells versus control cells. […] The selectivity index (SI) was calculated as [drawing 30] , in accordance with previously described protocols.[60]

C. albicans ATCC 90028 = assay: Antifungal activity: MIC/MFC, disc-diffusion; assay type: cell-based, Candida albicans
Experimental: (§1) Direct antimicrobial activity was determined against the following standard strains: (1) Gram-positive cocci: methicillin-sensitive Staphylococcus aureus ATCC 6538P (MSSA), methicillin-resistant S. aureus subsp. aureus ATCC 43300 (MRSA), S. epidermidis ATCC 12228, Enterococcus faecium ATCC 6057, E. faecalis ATCC 29212, Bacillus subtilis ATCC 6633; (2) Gram-negative bacteria from Enterobacteriales order: Klebsiella pneumoniae ATCC 13883, Escherichia coli ATCC 25922, Enterobacter cloacae DSM 6234, Proteus mirabilis ATCC 12453, Serratia marcescens ATCC 13880; (3) Gram-negative non-fermentative rods: Acinetobacter baumannii ATCC 19606, Pseudomonas aeruginosa ATCC 27853, Stenotrophomonas maltophilia ATCC 12714, S. maltophilia ATCC 13637, Burkholderia cepacia ATCC 25416, Bordetella bronchiseptica ATCC 4617; (4) yeasts: Candida albicans ATCC 90028, C. krusei ATCC 6258, C. parapsilosis ATCC 22019, C. tropicalis (Castellani) Berkhout ATCC 750, C. tropicalis IBA 171, C. guilliermondii IBA 155, and Saccharomyces cerevisiae ATCC 9763. Moreover, 5 clinical strains of methicillin-resistant S. aureus were also included: NMI 664 K, NMI 1576 K, NMI 1712 K, NMI 1991 K, and NMI 2541 K. All strains were stored at −80 °C. Prior to testing, each bacterial strain was subcultured twice on tryptic soy agar TSA (bioMerieux) medium and yeast strains on Sabouraud dextrose agar (bioMerieux) for 24–48 h at 30 °C to ensure viability. The antimicrobial activity was evaluated as previously described[26] by the disc-diffusion method and the MIC determination assays according to the EUCAST (ref. [71] and [72]) and CLSI (ref. [53] and [73]) recommendations. Assessment of bactericidal (MBC) and fungicidal (MFC) activities was performed according to the CLSI recommendations.[54,74] The following reference agents were used: fluconazole (in the case of fungi), linezolid (for Gram-positive bacteria), and nitrofurantoin (for Gram-negative rods). The new benzosiloxaboroles were dissolved in DMSO (Sigma).

C. krusei ATCC 6258 = assay: Antifungal activity: MIC/MFC, disc-diffusion; assay type: cell-based
Experimental: as §1, with “The following reference agents were used: fluconazole (in the case of fungi), linezolid (for Gram-positive bacteria), and nitrofurantoin (for Gram-negative rods).” left out

[2] = tested on: C. guilliermondii IBA 155; assay: Antifungal activity: MIC/MFC, disc-diffusion; assay type: cell-based
Experimental: as §1

[3] = tested on: C. parapsilosis ATCC 22019; assay: Antifungal activity: MIC/MFC, disc-diffusion; assay type: cell-based
Experimental: as §1

C. tropicalis ATCC 750 = assay: Antifungal activity: MIC/MFC, disc-diffusion; assay type: cell-based
Experimental: as §1

C. tropicalis IBA 171 = assay: Antifungal activity: MIC/MFC, disc-diffusion; assay type: cell-based
Experimental: as §1

S. cerevisiae ATCC 9763 = assay: Antifungal activity: MIC/MFC, disc-diffusion; assay type: cell-based, Saccharomyces cerevisiae
Experimental: as §1

E. coli ATCC 25922 = assay: Antibacterial activity: MIC/MBC, MIC with PAβN, disc-diffusion; assay type: cell-based, Escherichia coli; details: E. coli ATCC 25922
Experimental: as §1, with “The following reference agents were used: fluconazole (in the case of fungi), linezolid (for Gram-positive bacteria), and nitrofurantoin (for Gram-negative rods).” left out
(§2) Considering that the MDR efflux pumps often contribute to Gram-negative rod resistance, the MIC values of studied agents, with or without the pump inhibitor, PAβN (20 μg mL^−1) (Sigma), were determined.[75] The MIC was determined using Mueller–Hinton II broth medium (MHB) (Becton Dickinson) by the broth microdilution method, according to the CLSI guideliness.[53] To minimize the influence of PAβN on the destabilization of bacterial cell covers, the tests were conducted in the presence of 1 mM MgSO4 (Sigma).[76] At least a 4-fold reduction in the MIC value after the addition of PAβN was considered significant.[56,77]

K. pneumoniae ATCC 13883 = assay: as above; assay type: cell-based, Klebsiella pneumoniae; details: K. pneumoniae ATCC 13883
Experimental: as §1, with “The following reference agents were used: fluconazole (in the case of fungi), linezolid (for Gram-positive bacteria), and nitrofurantoin (for Gram-negative rods).” left out
as §2

P. mirabilis ATCC 12453 = assay: as above; assay type: cell-based, Proteus mirabilis; details: P. mirabilis ATCC 12453
Experimental: as §1, with “The following reference agents were used: fluconazole (in the case of fungi), linezolid (for Gram-positive bacteria), and nitrofurantoin (for Gram-negative rods).” left out
as §2

E. cloacae DSM 6234 = assay: as above; assay type: cell-based, Enterobacter cloacae; details: E. cloacae DSM 6234
Experimental: as §1, with “The following reference agents were used: fluconazole (in the case of fungi), linezolid (for Gram-positive bacteria), and nitrofurantoin (for Gram-negative rods).” left out
as §2

S. marcescens ATCC 13880 = assay: as above; assay type: cell-based, Serratia marcescens; details: S. marcescens ATCC 13880
Experimental: as §1, with “The following reference agents were used: fluconazole (in the case of fungi), linezolid (for Gram-positive bacteria), and nitrofurantoin (for Gram-negative rods).” left out
as §2

A. baumannii ATCC 19606 = assay: as above; assay type: cell-based, Acinetobacter baumannii; details: A. baumannii ATCC 19606
Experimental: as §1, with “The following reference agents were used: fluconazole (in the case of fungi), linezolid (for Gram-positive bacteria), and nitrofurantoin (for Gram-negative rods).” left out
as §2

P. aeruginosa ATCC 27853 = assay: as above; assay type: cell-based; details: Pseudomonas aeruginosa, ATCC27853, P. aeruginosa ATCC 27853
Experimental: as §1, with “The following reference agents were used: fluconazole (in the case of fungi), linezolid (for Gram-positive bacteria), and nitrofurantoin (for Gram-negative rods).” left out
as §2

[4] = tested on: S. maltophilia ATCC 12714; assay: as above; assay type: cell-based, Stenotrophomonas maltophilia; details: Stenotrophomonas maltophilia, ATCC12714, S. maltophilia ATCC 12714
Experimental: as §1, with “The following reference agents were used: fluconazole (in the case of fungi), linezolid (for Gram-positive bacteria), and nitrofurantoin (for Gram-negative rods).” left out
as §2

[5] = tested on: S. maltophilia ATCC 13637; assay: as above; assay type: cell-based, Stenotrophomonas maltophilia; details: Stenotrophomonas maltophilia, ATCC13637, S. maltophilia ATCC 13637
Experimental: as §1, with “The following reference agents were used: fluconazole (in the case of fungi), linezolid (for Gram-positive bacteria), and nitrofurantoin (for Gram-negative rods).” left out
as §2

B. cepacia ATCC 25416 = assay: Antibacterial activity: MIC/MBC, disc-diffusion; assay type: cell-based, Burkholderia cepacia; details: B. cepacia ATCC 25416
Experimental: as §1, with “The following reference agents were used: fluconazole (in the case of fungi), linezolid (for Gram-positive bacteria), and nitrofurantoin (for Gram-negative rods).” left out
as §2

[6] = tested on: B. bronchiseptica ATCC 4617; assay: Antibacterial activity: MIC/MBC, disc-diffusion; assay type: cell-based, Bordetella bronchiseptica; details: Bordetella bronchiseptica, ATCC4617, B. bronchiseptica ATCC 4617
Experimental: as §1, with “The following reference agents were used: fluconazole (in the case of fungi), linezolid (for Gram-positive bacteria), and nitrofurantoin (for Gram-negative rods).” left out
as §2

[7] = (-) = zone not observed, paper discs 9 mm

SMILES: N.N.[Cl][Pt][Cl] [Cisplatin, reference compound]
- IC50 [1]: 1.9 µg/mL

SMILES: OC(Cn1cncn1)(Cn1cncn1)c1ccc(F)cc1F [FL, fluconazole, reference compound]
- diameter of inhibition zone (C. albicans ATCC 90028; C. albicans ATCC 90028, (-) = zone not observed, paper discs 9 mm): 43 mm
- MIC (C. albicans ATCC 90028; Candida albicans, ATCC90028, read-out: MIC): 1 µg/mL (≈ 3.27 µM)
- diameter of inhibition zone (C. krusei ATCC 6258; C. krusei ATCC 6258, (-) = zone not observed, paper discs 9 mm): 16 mm
- MIC (C. krusei ATCC 6258; Pichia kudriavzevii, ATCC6258, read-out: MIC): 64 µg/mL (≈ 209 µM)
- diameter of inhibition zone ([2]; C. guilliermondii IBA 155, (-) = zone not observed, paper discs 9 mm): 40 mm
- MIC ([2]; Meyerozyma guilliermondii, IBA155, read-out: MIC): 0.75 µg/mL (≈ 2.45 µM)
- diameter of inhibition zone ([3]; C. parapsilosis ATCC 22019, (-) = zone not observed, paper discs 9 mm): 32 mm
- MIC ([3]; Lodderomyces parapsilosis, ATCC22019, read-out: MIC): 2 µg/mL (≈ 6.53 µM)
- diameter of inhibition zone (C. tropicalis ATCC 750; C. tropicalis ATCC 750, (-) = zone not observed, paper discs 9 mm): 40 mm
- MIC (C. tropicalis ATCC 750; Candida tropicalis, ATCC750, read-out: MIC): 0.38 µg/mL (≈ 1.24 µM)
- diameter of inhibition zone (C. tropicalis IBA 171; C. tropicalis IBA 171, (-) = zone not observed, paper discs 9 mm): 39 mm
- MIC (C. tropicalis IBA 171; Candida tropicalis, IBA171, read-out: MIC): 0.38 µg/mL (≈ 1.24 µM)
- diameter of inhibition zone (S. cerevisiae ATCC 9763; S. cerevisiae ATCC 9763, (-) = zone not observed, paper discs 9 mm): 12 mm
- MIC (S. cerevisiae ATCC 9763; Saccharomyces cerevisiae, ATCC9763, read-out: MIC): 16 µg/mL (≈ 52.2 µM)

SMILES: O=C1CN(/N=C/c2ccc([N+](=O)[O-])o2)C(=O)N1 [NF, nitrofurantoin, reference compound]
- diameter of inhibition zone (E. coli ATCC 25922; [7]): 24 mm
- MBC (E. coli ATCC 25922; Escherichia coli, ATCC25922): 8 µg/mL (≈ 33.6 µM)
- MIC (E. coli ATCC 25922; Escherichia coli, ATCC25922, read-out: MIC): 8 µg/mL (≈ 33.6 µM)
- diameter of inhibition zone (K. pneumoniae ATCC 13883; [7]): 23 mm
- MBC (K. pneumoniae ATCC 13883; Klebsiella pneumoniae, ATCC13883): 32 µg/mL (≈ 134 µM)
- MIC (K. pneumoniae ATCC 13883; Klebsiella pneumoniae, ATCC13883, read-out: MIC): 32 µg/mL (≈ 134 µM)
- diameter of inhibition zone (P. mirabilis ATCC 12453; [7]): 9 mm
- MBC (P. mirabilis ATCC 12453; Proteus mirabilis, ATCC12453): > 128 µg/mL
- MIC (P. mirabilis ATCC 12453; Proteus mirabilis, ATCC12453, read-out: MIC): 128 µg/mL (≈ 537 µM)
- diameter of inhibition zone (E. cloacae DSM 6234; [7]): 17 mm
- MBC (E. cloacae DSM 6234; Enterobacter cloacae, DSM6234): 32 µg/mL (≈ 134 µM)
- MIC (E. cloacae DSM 6234; Enterobacter cloacae, DSM6234, read-out: MIC): 32 µg/mL (≈ 134 µM)
- diameter of inhibition zone (S. marcescens ATCC 13880; [7]): 12 mm
- MBC (S. marcescens ATCC 13880; Serratia marcescens, ATCC13880): > 128 µg/mL
- MIC (S. marcescens ATCC 13880; Serratia marcescens, ATCC13880, read-out: MIC): 128 µg/mL (≈ 537 µM)
- diameter of inhibition zone (A. baumannii ATCC 19606; [7]): 9 mm
- MBC (A. baumannii ATCC 19606; Acinetobacter baumannii, ATCC19606): 128 µg/mL (≈ 537 µM)
- MIC (A. baumannii ATCC 19606; Acinetobacter baumannii, ATCC19606, read-out: MIC): 64 µg/mL (≈ 269 µM)
- MBC (P. aeruginosa ATCC 27853): > 128 µg/mL
- MIC (P. aeruginosa ATCC 27853; read-out: MIC): > 128 µg/mL
- MBC [4]: > 128 µg/mL
- MIC ([4]; read-out: MIC): 128 µg/mL (≈ 537 µM)
- MBC [5]: > 128 µg/mL
- MIC ([5]; read-out: MIC): 128 µg/mL (≈ 537 µM)
- diameter of inhibition zone (B. cepacia ATCC 25416; [7]): 12 mm
- MBC (B. cepacia ATCC 25416; Burkholderia cepacia, ATCC25416): 32 µg/mL (≈ 134 µM)
- MIC (B. cepacia ATCC 25416; Burkholderia cepacia, ATCC25416, read-out: MIC): 32 µg/mL (≈ 134 µM)
- MBC [6]: 128 µg/mL (≈ 537 µM)
- MIC ([6]; read-out: MIC): 64 µg/mL (≈ 269 µM)
